Entries after “also recorded” stand apart in the source; their conditions may differ. Like-named read-outs stand apart in the source and are kept apart here.
How the values were obtained:
[1] = tested on: 60 human cancer cell lines; assay: NCI-60 five-dose screen, mean cytotoxicity over 60 human cancer cell lines; assay type: cell-based
Description: The gold(III) complexes of this invention were screened by the National Cancer Institute (NCI, USA) against their panel of 60 different human cancer cell lines. These screens initially entail a one-dose test for the compound at a high concentration (10 μM; e.g. FIGS. 5, 6 and 7). Compounds with a good cytotoxicity profile in the one-dose screen are then subjected to a five-dose screen for the full panel of sixty human cancer cell lines (the so-called 5-dose NCI-60 screen). In the full five-dose screen, the compound concentration is varied in five doses from 10^−8 M to 10^−4 M in order to establish a dose-response function of percentage cell growth versus the concentration of the test agent. […] Similar data will shortly be available for compounds 1.1Y^1b and 1.5Y^1a as these derivatives are in 5-dose screens currently at the NCI.
The mean cytotoxicity data summarized in Scheme 7 were compiled over 60 human cancer cell lines from the NCI database. […] The dose-response curves for the bis(pyrrolide-imine) chelates of the invention are steeper, or harder, than those of all the compounds compared in Scheme 7.

topoisomerase II = topoisomerase II (Homo sapiens, UniProt P11388); assay: Topoisomerase II DNA cleavage/relaxation assay, supercoiled plasmid DNA, EB gel (TopoGEN protocol); assay type: biochemical
Description: The compound MA_AuPr clearly targets topoisomerase II if the statistical analysis of the NCI data for a range of drugs shown in FIG. 13 is correct. MA_AuPr was therefore assayed for its action against topoisomerase II in vitro using TopoGEN's standard protocol over a wide range of test agent concentrations (0.005 to 500 μM) in order to obtain direct experimental proof for the apparent cellular target of the compound to ensure that a fundamental understanding of the mechanism of action of this new class of Au(III) compounds exists. These experiments were performed by the company TopoGEN and at the University of Central Florida. The DNA cleavage experiments were performed in vitro using purified topoisomerase I and II enzymes and supercoiled plasmid DNA as the substrate. The controls that were used in the experiment were linear marker DNA as well as reactions without the gold(III) complex and high concentrations of VP16. The compound VP16 (etoposide) is a commercially available DNA intercalator chemotherapeutic agent, widely used in the treatment of lung and testicular cancers as well as lymphomas. The choice of VP16 as a control is based on the fact that it is a poor topoisomerase II inhibitor, but is a powerful topoisomerase II poison which arrests the enzyme's cycle at the ternary drug-enzyme-DNA cleavage complex stage, leading to observation of linear DNA fragments upon SDS denaturation of the enzyme (i.e., work-up). Comparison of the VP16 results with the results of MA_AuPr would therefore give a good indication of whether the gold(III) chelate is an inhibitor or a poison.
Lane 1 of the gel (FIG. 14) is the control experiment with only supercoiled plasmid DNA present. The control contains no topoisomerase II and so the DNA supercoiled structure cannot be relaxed, as the topoisomerase II enzyme would usually do. […] At a higher concentration of the test agent (50 μM), both supercoiled plasmid DNA and linear cleavage products are observed. […] At very high concentrations (>500 μM), MA_AuPr behaves exclusively as a catalytic inhibitor of the enzyme.
The role of gold(III) in the efficacy of the compound was determined by modifying the structure of MA_AuPr by replacing the Au(III) cation with Pd(II) to afford MA_PdPr (the isoelectronic square planar coordination complex of known structure and geometry^31) and carrying out the DNA relaxation assay with topoisomerase II as before. The metal-free ligand (MA_H2PrLig) was tested under identical conditions to confirm that the mechanism of action is related to the intact structure of the metal chelate.

Genotoxicity = assay: Genotoxicity
Text: (§1) First, the compound is not genotoxic (i.e. mutagenic).

[2] = tested on: 3LL tumor (Lewis lung carcinoma); assay: 3LL tumor growth in black mice
Microsomal clearance = assay type: in vitro ADME; details: microsomes
Text: as §1

[3] = tested on: HepG2 human hepatocellular carcinoma cells; assay: HepG2 cytotoxicity / cell health parameters; assay type: cell-based
Text: The data for MA_AuPr in Scheme 22 are consistent with a cytotoxic compound capable of inducing apoptosis (programmed cell death) and, indeed, a compound that performs better than the control drug. […] Other cell health parameters which respond are a loss of total cells per well (indicating toxicity due to necrosis, apoptosis or a reduction in cellular proliferation), an increase in nuclear area (indicating necrosis or G2 cell cycle arrest), an increase in cytochrome c release (implying activation of a signalling cascade leading to apoptosis). The latter is particularly relevant as we may rule out cell death by necrosis in the case of MA_AuPr. The mechanism of action of the compound thus leads to cell cycle arrest in the G2 phase and the induction of apoptosis (highly desirable for an anticancer drug). […] Since the compound induces cytochrome c release, cytotoxicity involves apoptosis.

[4] = assay type: in vivo, mouse
Description: FIG. 22 is a plot showing the mouse survival data as a function of metallodrug dose for MA_AuPr.
A single dose of the compound was administered by injection over the first week followed by two injections per week per mouse for a total period of 50 days.

topoisomerase II, sequence (P11388 whole entry): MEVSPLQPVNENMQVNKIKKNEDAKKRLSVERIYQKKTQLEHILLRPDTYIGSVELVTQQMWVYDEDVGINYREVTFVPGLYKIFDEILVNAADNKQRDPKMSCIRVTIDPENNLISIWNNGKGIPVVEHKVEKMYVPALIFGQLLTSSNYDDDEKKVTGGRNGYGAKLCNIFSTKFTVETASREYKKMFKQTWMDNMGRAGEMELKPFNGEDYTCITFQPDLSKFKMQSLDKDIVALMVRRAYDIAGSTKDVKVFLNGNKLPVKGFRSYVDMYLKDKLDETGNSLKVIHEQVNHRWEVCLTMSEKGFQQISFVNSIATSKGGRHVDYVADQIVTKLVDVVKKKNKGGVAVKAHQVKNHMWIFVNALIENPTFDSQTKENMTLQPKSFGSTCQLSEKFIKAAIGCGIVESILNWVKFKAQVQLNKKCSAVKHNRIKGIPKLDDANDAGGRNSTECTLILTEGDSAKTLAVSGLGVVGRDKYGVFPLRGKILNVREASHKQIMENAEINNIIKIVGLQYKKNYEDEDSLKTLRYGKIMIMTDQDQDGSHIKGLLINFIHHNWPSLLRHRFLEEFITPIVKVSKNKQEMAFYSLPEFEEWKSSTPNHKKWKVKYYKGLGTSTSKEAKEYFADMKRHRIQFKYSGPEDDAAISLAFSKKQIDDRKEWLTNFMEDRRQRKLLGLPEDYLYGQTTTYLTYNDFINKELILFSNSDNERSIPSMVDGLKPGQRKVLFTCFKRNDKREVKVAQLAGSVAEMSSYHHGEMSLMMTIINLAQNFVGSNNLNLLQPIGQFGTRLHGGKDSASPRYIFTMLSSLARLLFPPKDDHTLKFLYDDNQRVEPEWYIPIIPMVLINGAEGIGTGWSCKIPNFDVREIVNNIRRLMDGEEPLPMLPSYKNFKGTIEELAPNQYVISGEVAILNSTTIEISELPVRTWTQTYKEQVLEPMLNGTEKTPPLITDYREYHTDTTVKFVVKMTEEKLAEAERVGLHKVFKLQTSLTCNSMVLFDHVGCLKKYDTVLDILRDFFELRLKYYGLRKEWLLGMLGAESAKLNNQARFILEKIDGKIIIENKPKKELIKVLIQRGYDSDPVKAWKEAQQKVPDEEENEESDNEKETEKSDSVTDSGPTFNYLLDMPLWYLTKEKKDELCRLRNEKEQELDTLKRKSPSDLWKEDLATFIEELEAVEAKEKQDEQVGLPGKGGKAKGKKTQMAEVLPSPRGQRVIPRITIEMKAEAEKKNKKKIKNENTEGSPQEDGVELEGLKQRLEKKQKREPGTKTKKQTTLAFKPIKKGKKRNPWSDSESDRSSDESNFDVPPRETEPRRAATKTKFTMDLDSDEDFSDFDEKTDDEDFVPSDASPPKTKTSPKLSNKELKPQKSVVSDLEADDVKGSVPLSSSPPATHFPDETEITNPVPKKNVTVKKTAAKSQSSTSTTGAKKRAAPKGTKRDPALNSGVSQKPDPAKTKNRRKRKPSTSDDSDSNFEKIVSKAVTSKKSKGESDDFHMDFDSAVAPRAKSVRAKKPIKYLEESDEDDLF

C1=NCCCN=Cc2ccc[n]2[Au+][n]2cccc21.[Cl-] [MA_AuPr, 2,2′-{propane-1,3-diylbis[nitrilo(E)methylylidene]}bis(pyrrol-1-ido)gold(III) chloride]
fraction of cancer cell lines equivalently or more susceptible than to cisplatin ([1]; 60 human cancer cell lines): ca. 25%
CC50 ([1]; mean over 60 human cancer cell lines, 50% cell death, read-out: LC50 (the source's name)): 49 µM
GI50 ([1]; mean over 60 human cancer cell lines, 50% growth inhibition): 7 µM
TGI (concentration for total growth inhibition) ([1]; mean over 60 human cancer cell lines, 100% (total) growth inhibition, read-out: TGI or IC50): 20 µM
increase in concentration from 50% growth inhibition to 50% cell kill ([1]; on average over the full 60 cell lines): 7 fold
growth inhibition activity relative to cisplatin, on average ([1]; plot of −log(GI50/M) versus cisplatin, FIG. 10): 95%
concentration at which compound behaves exclusively as catalytic inhibitor (topoisomerase II): > 500 µM
action on topoisomerase II (topoisomerase II; compared with VP-16 (etoposide)): both a poison and a catalytic topoisomerase II inhibitor
concentration of catalytic inhibition of topoisomerase II (topoisomerase II; supercoiled plasmid DNA not relaxed): 50 µM
concentration at which topoisomerase II poisoning (DNA cleavage induction) is observed (topoisomerase II; supercoiled plasmid DNA, linear cleavage products): 0.5 µM
Genotoxicity (Genotoxicity): not genotoxic; also recorded: Negative
in vivo performance relative to cisplatin ([2]; 3LL tumors, 20 days): about 43%
reduction of 3LL tumor growth rate relative to control ([2]; after 20 days, 20 μmol/kg twice weekly): about 33%
Microsomal clearance t1/2 (Microsomal clearance): t1/2 < 10 min
Cytotoxicity (Hep-G2) [3]: Strong positive
Cytochrome C release MEC ([3]; HepG2): 19 µM
DNA structure MEC ([3]; HepG2): >19 µM
Mitochondrial mass MEC ([3]; HepG2): 2.1 µM
Mitochondrial membrane potential MEC ([3]; HepG2): 6.2 µM
Nuclear Area MEC ([3]; HepG2): 6.2 µM
Cell Loss MEC ([3]; HepG2, minimum effective concentration): <0.23 µM
AC50 ([3]; HepG2, read-out: Cell Loss AC50): 7.4 µM
AC50 ([3]; HepG2, read-out: Cytochrome C release AC50): 33 µM
AC50 ([3]; HepG2, read-out: Membrane permeability AC50): 16 µM
AC50 ([3]; HepG2, read-out: Mitochondrial mass AC50): 41 µM
AC50 ([3]; HepG2, read-out: Mitochondrial membrane potential AC50): > 500 µM
AC50 ([3]; HepG2, read-out: Nuclear Area AC50): 17 µM
health and weight of mice ([4]; 1 to 30 μmol/kg, 50 days): remained healthy and showed no abnormal weight changes
acute toxicity ([4]; mice, injection, 1 to 30 μmol/kg doses): > 30 μmol/kg/week
chronic toxicity ([4]; mice, two injections per week, 50 days): > 60 μmol/kg/week
